Source: patent publication US20210255193A1, “LYSINE REACTIVE PROBES AND USES THEREOF” (The Scripps Research Institute, priority 2017, published 2021)

Legend:
Experiment in all cases: competitive isoTOP-ABPP
Format in all cases: binding
[1] = target: T1, WARS Tryptophan--tRNA ligase, cytoplasmic (Homo sapiens, UniProt P23381); details: 50 uM, in vitro; for isoTOP-ABPP ratio (R) at liganded lysine P23381_K256: sol, 231; for R value (DMSO/fragment) for probe 1 labeling: P23381_K256; for R value (DMSO/fragment) for probe 1 labeling / isoTOP-ABPP reactivity ratio at lysine P23381_K256: 231 sol
T1 construct: isoTOP-ABPP experiments performed in cell lysates (in vitro); endogenous in cells; host or cells: soluble proteome of human cancer cell lines (MDA-MB-231; Ramos and Jurkat also prepared)
T1 sequence (P23381 1-471): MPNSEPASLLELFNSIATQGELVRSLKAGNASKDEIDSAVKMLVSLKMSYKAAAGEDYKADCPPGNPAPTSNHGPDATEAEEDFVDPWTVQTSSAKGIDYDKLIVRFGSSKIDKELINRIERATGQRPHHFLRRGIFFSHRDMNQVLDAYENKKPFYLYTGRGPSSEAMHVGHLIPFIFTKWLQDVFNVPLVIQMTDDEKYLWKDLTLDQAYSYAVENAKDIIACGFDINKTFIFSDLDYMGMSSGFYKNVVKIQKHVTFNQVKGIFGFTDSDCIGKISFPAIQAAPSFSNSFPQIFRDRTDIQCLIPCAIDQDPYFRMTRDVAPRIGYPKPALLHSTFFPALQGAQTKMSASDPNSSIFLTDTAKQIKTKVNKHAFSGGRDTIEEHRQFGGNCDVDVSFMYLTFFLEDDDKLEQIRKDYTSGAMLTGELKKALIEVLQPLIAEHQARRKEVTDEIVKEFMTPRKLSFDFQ
Protocol: (§1) In vitro covalent fragment treatment for isoTOP-ABPP. All compounds were made up as solutions in DMSO (100×) and were used at a final concentration of 50 μM for activated esters and 100 μM for guanidinylating agents. For each profiling sample, 0.5 ml of lysate was treated with 5 μl of the 100× compound stock solution or 5 μl of DMSO. Samples were treated with activated esters for
(§2) STP-alkyne labeling and click chemistry. For concentration-dependent reactivity measurements by isoTOP-ABPP, 0.5 ml proteome aliquots were treated at ambient temperature with 1 mM STP-alkyne 1 (5 μl of 100 mM stock in DMSO) and 0.1 mM STP alkyne 1 (5 μl of 10 mM stock in DMSO), respectively. For competitive isoTOP-ABPP, after in vitro fragment treatment (detailed above), the samples were labeled for 1 h at ambient temperature with 0.1 mM STP-alkyne 1 (5 μl of 10 mM stock in DMSO). Samples were conjugated by copper-mediated azide-alkyne cycloaddition (CuAAC) to either the light (1 mM STP-alkyne or fragment treated) or heavy (0.1 mM STP-alkyne or DMSO treated) TEV tags (10 μl of 5 mM stocks in DMSO, final concentration=100 μM) using tris(2-carboxyethyl)phosphine hydrochloride
(§3) R value calculation and processing. The ratios of light and heavy MS1 peaks for each unique peptide were quantified with a CIMAGE software using default parameters (3 MS1 acquisitions per peak and signal to noise threshold set to 2.5). For reactivity measurements by isoTOP-ABPP, the R value was calculated from the ratio of MS1 peak areas, comparing the 1 mM STP alkyne sample (light TEV tag) with the 0.1 mM STP alkyne sample (heavy TEV tag). For competitive isoTOP-ABPP, the R value was calculated from the ratio of MS1 peak areas, comparing the DMSO treated sample (heavy TEV tag) with the compound treated sample (light TEV tag). […] Ratios for unique peptide entries are calculated for each experiment; overlapping peptides with the same modified lysine (for example, different charge states, MudPIT chromatographic steps or tryptic termini) are grouped together and the median ratio is reported as the final ratio (R). The peptide ratios reported by CIMAGE were further filtered to ensure the removal or correction of low-quality ratios in each individual data set. The quality filters applied were the following: removal of half tryptic peptides; for ratios with high standard deviations from the median (90% of the median or above) the lowest ratio was taken instead of the median; removal of peptides with R=20 and only a single MS2 event triggered during the elution of the parent ion; manual annotation of all the peptides with ratios of 20, removing any peptides with low quality elution profiles that remained after the previous curation steps (only done for competitive isoTOP-ABPP).
(§4) Cross-data processing for fragment screening. For compound treated samples, biological replicates of the same condition were averaged, if the standard deviation was below 60% of the mean; otherwise, for lysines with at least one R value <4 for a particular compound, the lowest value of the ratio set was taken. For lysines, where all R values for a particular compound were ≥4, the average was reported. For peptides containing several possible modified lysines, the lysine with the highest number of quantification events was used for analysis and the remaining, redundant peptides were reported as alternative modification sites. Peptides included in the aggregate dataset (those used for further bioinformatics and statistical analyses) were required to have been quantified in 2 experiments for competitive isoTOP-ABPP. Lysines were categorized as liganded, if they had at least one ratio R≥4 (hit fragments). For liganded lysines with R=20 for all liganding events, lysines were required to have been quantified with R=20 in two separate experiments and were further required to have been quantified with R<20 in one additional experiment.

[2] = target: T2, HNRNPK Heterogeneous nuclear ribonucleoprotein K (Homo sapiens, UniProt P61978); details: 50 uM, in vitro; for isoTOP-ABPP ratio (R) at liganded lysine P61978_K405: sol, 231
T2 construct: isoTOP-ABPP experiments performed in cell lysates (in vitro); endogenous in cells; host or cells: soluble proteome of human cancer cell lines (MDA-MB-231, Ramos, Jurkat)
Protocol: as §1, §2, §3, §4

[3] = target: T3, DCTN2 Dynactin subunit 2 (Homo sapiens, UniProt Q13561); details: 50 uM, in vitro; for isoTOP-ABPP ratio (R) at liganded lysine Q13561_K175: sol, 231; for R value (DMSO/fragment) for probe 1 labeling: Q13561_K175; for R value (DMSO/fragment) for probe 1 labeling / isoTOP-ABPP reactivity ratio at lysine Q13561_K175: 231 sol
T3 construct: isoTOP-ABPP experiments performed in cell lysates (in vitro); endogenous in cells; host or cells: soluble proteome of human cancer cell lines (MDA-MB-231, Ramos, Jurkat)
Protocol: as §1, §2, §3, §4

[4] = target: T4, UCHL5 Ubiquitin carboxyl-terminal hydrolase isozyme L5 (Homo sapiens, UniProt Q9Y5K5); details: 50 uM, in vitro; for isoTOP-ABPP ratio (R) at liganded lysine Q9Y5K5_K323: sol, 231; for R value (DMSO/fragment) for probe 1 labeling: Q9Y5K5_K323; for R value (DMSO/fragment) for probe 1 labeling / isoTOP-ABPP reactivity ratio at lysine Q9Y5K5_K323: 231 sol
T4 construct: endogenous in cells; host or cells: MDA-MB-231 (soluble fraction of lysate)
T4 sequence (Q9Y5K5 1-329): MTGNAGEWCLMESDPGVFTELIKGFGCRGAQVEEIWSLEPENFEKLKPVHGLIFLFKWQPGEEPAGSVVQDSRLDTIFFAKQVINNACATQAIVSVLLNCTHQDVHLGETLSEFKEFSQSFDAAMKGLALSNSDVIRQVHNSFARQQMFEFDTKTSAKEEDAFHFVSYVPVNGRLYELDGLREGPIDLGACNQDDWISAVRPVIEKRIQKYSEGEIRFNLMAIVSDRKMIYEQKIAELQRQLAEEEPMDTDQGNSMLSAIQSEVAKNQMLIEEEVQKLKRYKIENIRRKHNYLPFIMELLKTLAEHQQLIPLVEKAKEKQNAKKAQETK
Protocol: as §1, §2, §3, §4

T3 sequence (Q13561 whole entry, the tested form may be a part): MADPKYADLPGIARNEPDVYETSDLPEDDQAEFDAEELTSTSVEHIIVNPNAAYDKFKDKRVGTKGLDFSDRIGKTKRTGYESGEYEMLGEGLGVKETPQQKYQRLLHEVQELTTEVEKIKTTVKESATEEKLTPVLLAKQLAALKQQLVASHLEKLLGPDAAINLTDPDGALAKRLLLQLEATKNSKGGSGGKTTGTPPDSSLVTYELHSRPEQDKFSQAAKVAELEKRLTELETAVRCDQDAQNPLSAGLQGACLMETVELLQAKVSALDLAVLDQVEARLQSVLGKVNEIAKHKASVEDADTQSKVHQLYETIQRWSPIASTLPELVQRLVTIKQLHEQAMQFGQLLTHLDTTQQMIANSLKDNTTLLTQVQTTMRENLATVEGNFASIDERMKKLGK

Row | R value (DMSO/fragment) for probe 1 labeling [3] | SMILES | isoTOP-ABPP ratio (R) at liganded lysine P23381_K256 [1] | isoTOP-ABPP ratio (R) at liganded lysine P61978_K405 [2] | isoTOP-ABPP ratio (R) at liganded lysine Q13561_K175 [3] | isoTOP-ABPP ratio (R) at liganded lysine Q9Y5K5_K323 [4] | isoTOP-ABPP reactivity ratio at lysine P23381_K256 [1] | isoTOP-ABPP reactivity ratio at lysine Q13561_K175 [3] | further results
1 | – | CC(C)(C)OC(=O)NCCCC(=O)Oc1ccc([N+](=O)[O-])cc1[N+](=O)[O-] [fragment 41, 2,4-Dinitrophenyl 4-((tert-butoxycarbonyl)amino)butanoate] | 0.9 | 1.0 | 1.3 | 1.0 | – | – | –
2 | 1.7 | Cn1cc(CC(=O)Oc2c(F)c(F)c(F)c(F)c2F)c2ccccc21 [fragment 22, Pentafluorophenyl 2-(1-methyl-1H-indol-3-yl)acetate] | – | – | – | – | – | – | R value (DMSO/fragment) for probe 1 labeling [1]: 1.0; R value (DMSO/fragment) for probe 1 labeling [4]: 0.8
3 | – | O=C(Oc1ccc([N+](=O)[O-])cc1[N+](=O)[O-])c1ccc(-c2ccccc2)cc1 [fragment 37, 2,4-Dinitrophenyl [1,1′-biphenyl]-4-carboxylate] | 0.4 | 0.9 | 0.9 | 0.9 | – | – | –
4 | – | COc1cc(CCC(=O)Oc2ccc([N+](=O)[O-])cc2[N+](=O)[O-])cc(OC)c1OC [fragment 33, 2,4-Dinitrophenyl 3-(3,4,5-trimethoxyphenyl)propanoate] | – | – | – | – | 0.8 | 1.6 | isoTOP-ABPP reactivity ratio at lysine Q9Y5K5_K323 [4]: 0.8
5 | 1.0 | O=C(Oc1c(F)c(F)c(F)c(F)c1F)C(c1ccccc1)c1ccccc1 [fragment 20, Pentafluorophenyl 2,2-diphenylacetate] | – | – | – | – | – | – | R value (DMSO/fragment) for probe 1 labeling [1]: 1.3; R value (DMSO/fragment) for probe 1 labeling ([2]; P61978_K405, 231 sol): 1.0; R value (DMSO/fragment) for probe 1 labeling [4]: 0.9
6 | – | O=C(Oc1ccc([N+](=O)[O-])cc1[N+](=O)[O-])c1ccc2ccccc2n1 [fragment 35, 2,4-Dinitrophenyl quinoline-2-carboxylate] | 1.1 | 0.9 | 0.8 | 1.0 | – | – | –
7 | 1.1 | COc1cc(CCC(=O)Oc2c(F)c(F)c(F)c(F)c2F)cc(OC)c1OC [fragment 23, Pentafluorophenyl 3-(3,4,5-trimethoxyphenyl)propanoate] | – | – | – | – | – | – | –
8 | – | O=C(Oc1c(F)c(F)c(F)c(F)c1F)c1ccc2ccccc2n1 [fragment 25, Pentafluorophenyl quinoline-2-carboxylate] | – | – | – | – | 4.4 | 1.1 | isoTOP-ABPP reactivity ratio at lysine P61978_K405 ([2]; 231 sol): 1.3
9 | – | O=C(Oc1ccc([N+](=O)[O-])cc1[N+](=O)[O-])c1cc(C(F)(F)F)cc(C(F)(F)F)c1 [fragment 31, 2,4-Dinitrophenyl 3,5-bis(trifluoromethyl)benzoate] | – | – | – | – | 0.9 | 1.0 | isoTOP-ABPP reactivity ratio at lysine Q9Y5K5_K323 [4]: 1.0
